{"source": "patent US20150011751A1", "about": "“NOVEL TRIAZINE DERIVATIVE” (CARNA BIOSCIENCES, INC., priority 2012, published 2015)", "note": "pIC50: −log10 of the molar value. Where a name gives a salt, the structure may show the parent alone.", "data": [{"biological_target": "Dephosphorylated BTK (Homo sapiens, UniProt Q06187)", "sequence (Q06187 whole entry)": "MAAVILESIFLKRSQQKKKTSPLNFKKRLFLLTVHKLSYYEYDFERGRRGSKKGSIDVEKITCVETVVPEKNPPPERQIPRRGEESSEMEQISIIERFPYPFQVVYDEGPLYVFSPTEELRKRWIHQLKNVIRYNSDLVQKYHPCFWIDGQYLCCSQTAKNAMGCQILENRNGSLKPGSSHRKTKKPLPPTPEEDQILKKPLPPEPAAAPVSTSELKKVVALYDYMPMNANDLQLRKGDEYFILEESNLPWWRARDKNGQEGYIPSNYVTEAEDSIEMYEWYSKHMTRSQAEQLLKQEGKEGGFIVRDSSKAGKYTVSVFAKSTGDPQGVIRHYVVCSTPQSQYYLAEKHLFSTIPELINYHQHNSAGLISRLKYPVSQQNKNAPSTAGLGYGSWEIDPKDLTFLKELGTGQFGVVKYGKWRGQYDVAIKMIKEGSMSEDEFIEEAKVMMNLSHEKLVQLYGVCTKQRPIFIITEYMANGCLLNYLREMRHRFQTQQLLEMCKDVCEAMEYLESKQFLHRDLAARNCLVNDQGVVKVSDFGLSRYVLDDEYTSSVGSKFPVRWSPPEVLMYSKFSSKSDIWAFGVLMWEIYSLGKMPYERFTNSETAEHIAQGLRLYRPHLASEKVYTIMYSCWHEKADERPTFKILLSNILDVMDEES", "assay": "Test of activity inhibition against dephosphorylated BTK (mobility shift assay)", "method": "Kinase activity was measured by a mobility shift assay (MSA) method using QuickScout Screening Assist (trademark) MSA (commercially available kit, manufactured by Carna Biosciences, Inc.). FITC-labeled SRCtide peptide supplied with the kit was used as a substrate of a kinase reaction.\nIC50 value was calculated by regression analysis of the inhibition ratio and the test compound concentration (logarithm).\nDephosphorylated BTK was obtained by adding a A protein phosphatase (Code No. P0753S, manufactured by New England BioLabs Inc.) and MnCl2 to a biotinylated BTK protein BTN-BTK (manufactured by Carna Biosciences, Inc.) enzyme solution so as to adjust the concentrations to 10 U/μg and 2 mM, respectively, reacting the mixture at 4° C. overnight, removing the A protein phosphatase through anti-[sequence]-tag antibody agarose gel chromatography, and performing buffer exchange using 10DG Desalting Column.", "values": [{"smiles": "CC(C)(C)OC(=O)Nc1ccc(Nc2nc(N)nc(-c3cccc(NC(=O)c4ccc(C(C)(C)C)cc4)c3CO)n2)cc1", "note": "[Example 120, tert-Butyl {4-[(4-amino-6-{3-[4-(tert-butyl)benzamido]-2-(hydroxymethyl)phe-nyl}-1,3,5-triazin-2-yl)amino]phenyl}carbamate]", "pIC50": 8.26}, {"smiles": "CC(C)(C)c1ccc(C(=O)Nc2cccc(-c3nc(N)nc(Nc4ccc(OCCn5cccc5)cc4)n3)c2CO)cc1", "note": "[Example 150, N-{3-[4-({4-[2-(1H-Pyr-rol-1-yl)ethoxy]phe-nyl}amino)-6-amino-1,3,5-triazin-2-yl]-2-(hy-droxymethyl)phenyl}-4-(tert-butyl)benzamide]", "pIC50": 9.10}, {"smiles": "CC(=O)Nc1ccc(Nc2nc(N)nc(-c3cccc(NC(=O)c4ccc(C(C)(C)C)cc4)c3CO)n2)cc1", "note": "[Example 119, N-(3-{4-[(4-Acetamido-phenyl)amino]-6-amino-1,3,5-triazin-2-yl}-2-(hydroxymethyl)phe-nyl)-4-(tert-butyl)benz-amide]", "pIC50": 9.10}, {"smiles": "Nc1nc(Nc2ccn(CC3CCOCC3)c2)nc(-c2cccc(N3CCc4cc(C5CC5)cc(F)c4C3=O)c2CO)n1", "note": "[Example 254, 2-{3-[4-Amino-6-({1-[(tetra-hydro-2H-pyran-4-yl)methyl]-1H-pyrrol-3-yl}amino)-1,3,5-tri-azin-2-yl]-2-(hydroxy-methyl)phenyl}-6-cyclo-propyl-8-fluoro-3,4-dihydroisoquinolin-1(2H)-one]", "pIC50": 8.85}, {"smiles": "COCCOc1ccc(Nc2nc(N)nc(-c3cccc(NC(=O)c4ccc(C(C)(C)C)cc4)c3C)n2)cc1", "note": "[Example 34, N-[3-(4-Amino-6-{[4-(2-methoxyethoxy)phenyl]amino}-1,3,5-triazin-2-yl)-2-methylphenyl]-4-(tert-butyl)benz-amide]", "pIC50": 8.40}, {"smiles": "NC(=O)Cn1cc(Nc2nc(N)nc(-c3cccc(N4CCc5cc(C6CC6)cc(F)c5C4=O)c3CO)n2)cn1", "note": "[Example 266, 2-[4-({4-Amino-6-[3-(6-cyclopropyl-8-fluoro-1-oxo-3,4-dihydroiso-quinolin-2(1H)-yl)-2-(hydroxymethyl)phenyl]-1,3,5-triazin-2-yl}amino)-1H-pyrazol-1-yl]acetamide]", "pIC50": 8.89}, {"smiles": "CN(C)CCCOc1ccc(Nc2nc(N)nc(-c3cccc(N4CCc5cc(C6CC6)cc(F)c5C4=O)c3CO)n2)cc1", "note": "[Example 183, 2-{3-[4-Amino-6-({4-[3-(dimethylamino)pro-poxy]phenyl}amino)-1,3,5-triazin-2-yl]-2-(hydroxymethyl)phenyl}-6-cyclopropyl-8-fluoro-3,4-dihydro-isoquinolin-1(2H)-one]", "pIC50": 8.64}, {"smiles": "Cn1cc(Nc2nc(N)nc(-c3cccc(N4CCc5cc(C6CC6)cc(F)c5C4=O)c3CO)n2)cc1C(N)=O", "note": "[Example 251, 4-({4-Amino-6-[3-(6-cyclo-propyl-8-fluoro-1-oxo-3,4-dihydroisoquino-lin-2(1H)-yl)-2-(hydroxy-methyl)phenyl]-1,3,5-triazin-2-yl}ami-no)-1-methyl-1H-pyr-role-2-carboxamide]", "pIC50": 9.40}, {"smiles": "COCCOc1ccc(Nc2nc(N)nc(-c3cccc(NC(=O)c4ccc(C(C)(C)C)cc4)c3CO)n2)cc1", "note": "[Example 74, N-[3-(4-Amino-6-{[4-(2-methoxyethoxy)phenyl]amino}-1,3,5-triazin-2-yl)-2-(hydroxymeth-yl)phenyl]-4-(tert-butyl) benzamide]", "pIC50": 9.15}, {"smiles": "Nc1nc(Nc2ccc(N3CCOCC3)cc2)nc(-c2cccc(NC(=O)c3ccc(C(F)(F)F)cc3)c2CO)n1", "note": "[Example 168, N-(3-{4-Amino-6-[(4-morpholinophenyl)amino]-1,3,5-triazin-2-yl}-2-(hydroxymethyl)phe-nyl)-4-(trifluorometh-yl)benzamide]", "pIC50": 7.75}, {"smiles": "Nc1nc(Nc2ccc(O)cc2)nc(-c2cccc(NC(=O)c3cc4c(s3)CCCC4)c2CO)n1", "note": "[Example 136, N-(3-{4-Amino-6-[(4-hy-droxyphenyl)amino]-1,3,5-triazin-2-yl}-2-(hydroxymethyl)phenyl)-4,5,6,7-tetrahydro benzo[b]thiophene-2-carboxamide]", "pIC50": 8.89}, {"smiles": "Nc1nc(Nc2ccc(Cc3nnn[nH]3)cc2)nc(-c2cccc(N3CCc4cc(C5CC5)cc(F)c4C3=O)c2CO)n1", "note": "[Example 198, 2-{3-[4-({4-[(1H-Tetra-zol-5-yl)methyl]phe-nyl}amino)-6-amino-1,3,5-triazin-2-yl]-2-(hy-droxymethyl)phenyl}-6-cyclopropyl-8-fluoro-3,4-dihydroisoquinolin-1(2H)-one]", "pIC50": 8.43}, {"smiles": "Nc1nc(Nc2cnn(C3CCNCC3)c2)nc(-c2cccc(N3CCc4cc(C5CC5)cc(F)c4C3=O)c2CO)n1", "note": "[Example 223, 2-[3-(4-Amino-6-{[1-(piperidin-4-yl)-1H-py-razol-4-yl]amino}-1,3,5-triazin-2-yl)-2-(hy-droxymethyl)phenyl]-6-cyclopropyl-8-fluoro-3,4-dihydro-isoquinolin-1(2H)-one]", "pIC50": 9.22}, {"smiles": "CC(=O)N1CCN(c2ccc(Nc3nc(N)nc(-c4cccc(N5CCc6cc(C7CC7)cc(F)c6C5=O)c4CO)n3)cc2)CC1", "note": "[Example 220, 2-[3-(4-{[4-(4-Acetyl-piperazin-1-yl)phenyl]amino}-6-amino-1,3,5-triazin-2-yl)-2-(hy-droxymethyl)phenyl]-6-cyclopropyl-8-fluoro-3,4-dihydroisoquinolin-1(2H)-one]", "pIC50": 8.64}, {"smiles": "CC(C)(C)c1ccc(C(=O)Nc2cccc(-c3nc(N)nc(Nc4ccc(O)cc4)n3)c2CO)cc1", "note": "[Example 65, N-(3-{4-Amino-6-[(4-hy-droxyphenyl)amino]-1,3,5-triazin-2-yl}-2-(hydroxymethyl)phenyl)-4-(tert-butyl)benza-mide]", "pIC50": 9.22}, {"smiles": "CCC(C)n1cc(Nc2nc(N)nc(-c3cccc(N4CCc5cc(C6CC6)cc(F)c5C4=O)c3CO)n2)cn1", "note": "(stereo not shown) [Example 271, 2-[3-(4-Amino-6-{[1-(sec-butyl)-1H-pyrazol-4-yl]amino}-1,3,5-tri-azin-2-yl)-2-(hydroxy-methyl)phenyl]-6-cyclo-propyl-8-fluoro-3,4-dihydroisoquinolin-1 (2H)-one]", "pIC50": 9.40}, {"smiles": "CC(C)(C)c1ccc(C(=O)Nc2cccc(-c3nc(N)nc(Nc4ccc(Cn5cccn5)cc4)n3)c2CO)cc1", "note": "[Example 160, N-{3-[4-({4-[(1H-Pyra-zol-1-yl)methyl]phenyl}amino)-6-amino-1,3,5-triazin-2-yl]-2-(hy-droxymethyl)phenyl}-4-(tert-butyl)benzamide]", "pIC50": 9.10}, {"smiles": "CN1CCN(C)C(c2ccc(Nc3nc(N)nc(-c4cccc(NC(=O)c5ccc(C(C)(C)C)cc5)c4CO)n3)cc2)C1=O", "note": "(stereo not shown) [Example 89, N-[3-(4-Amino-6-{[4-(1,4-dimethyl-3-oxo-piperazin-2-yl)phenyl]ami-no}-1,3,5-triazin-2-yl)-2-(hydroxymethyl)phenyl]-4-(tert-butyl) benzamide]", "pIC50": 9.22}, {"smiles": "Cn1cc(Nc2nc(N)nc(-c3cccc(N4CCc5cc(C6CC6)cc(F)c5C4=O)c3CO)n2)cc1C#N", "note": "[Example 269, 4-({4-Amino-6-[3-(6-cyclo-propyl-8-fluoro-1-oxo-3,4-dihydroisoquino-lin-2(1H)-yl)-2-(hy-droxymethyl)phenyl]-1,3,5-triazin-2-yl}ami-no)-1-methyl-1H-pyrrole-2-carbonitrile]", "pIC50": 9.10}, {"smiles": "Nc1nc(Nc2cccc(N3CCOCC3)c2)nc(-c2cccc(N3CCc4cc(C5CC5)cc(F)c4C3=O)c2CO)n1", "note": "[Example 243, 2-(3-{4-Amino-6-[(3-morpho-linophenyl)amino]-1,3,5-triazin-2-yl}-2-(hydroxymethyl)phe-nyl)-6-cyclopropyl-8-fluoro-3,4-dihydroiso-quinolin-1(2H)-one]", "pIC50": 8.64}, {"smiles": "Cc1c(NC(=O)c2ccc(C(C)(C)C)cc2)cccc1-c1ncnc(Nc2ccc(N3CCOCC3)cc2)n1", "note": "[Example 24, 4-(tert-Butyl)-N-(2-meth-yl-3-{4-[(4-morpho-linophenyl)amino]-1,3,5-triazin-2-yl}phenyl) benzamide]", "pIC50": 8.47}, {"smiles": "CC(C)(C)c1ccc(C(=O)Nc2cccc(-c3nc(N)nc(Nc4cccc(CN5CCOCC5)c4)n3)c2CO)cc1", "note": "[Example 163, N-[3-(4-Amino-6-{[3-(morpholinomethyl)phe-nyl]amino}-1,3,5-triazin-2-yl)-2-(hydroxymeth-yl)phenyl]-4-(tert-butyl)benzamide]", "pIC50": 9.00}, {"smiles": "Nc1nc(Nc2ccc(OCCN3CCOCC3)cc2)nc(-c2cccc(N3CCc4cc(C5CC5)cc(F)c4C3=O)c2CO)n1", "note": "[Example 196, 2-[3-(4-Amino-6-{[4-(2-morpholinoethoxy)phe-nyl]amino}-1,3,5-tri-azin-2-yl)-2-(hydroxy-methyl)phenyl]-6-cyclo-propyl-8-fluoro-3,4-dihydroisoquinolin-1(2H)-one formate]", "pIC50": 8.47}, {"smiles": "Nc1nc(Nc2ccc(O)cc2)nc(-c2cccc(N3CCc4cc(C5CC5)cc(F)c4C3=O)c2CO)n1", "note": "[Example 182, 2-(3-{4-Amino-6-[(4-hy-droxyphenyl)amino]-1,3,5-triazin-2-yl}-2-(hydroxymethyl)phenyl)-6-cyclopropyl-8-fluoro-3,4-dihydro-isoquinolin-1(2H)-one]", "pIC50": 8.44}, {"smiles": "Cc1c(NC(=O)c2ccc(C(C)(C)C)cc2)cccc1-c1nc(N)nc(Nc2ccc(N3CCCOCC3)cc2)n1", "note": "[Example 86, N-[3-(4-{[4-(1,4-Oxaze-pan-4-yl)phenyl]amino}-6-amino-1,3,5-tria-zin-2-yl)-2-methyl-phenyl]-4-(tert-butyl)benzamide]", "pIC50": 8.40}, {"smiles": "CCN(CC)c1ccc(Nc2nc(N)nc(-c3cccc(N4CCc5cc(C6CC6)cc(F)c5C4=O)c3CO)n2)cc1", "note": "[Example 245, 2-[3-(4-Amino-6-{[4-(di-ethylamino)phenyl]a-mino}-1,3,5-triazin-2-yl)-2-(hydroxymethyl)phenyl]-6-cyclopropyl-8-fluoro-3,4-dihydro-isoquinolin-1(2H)-one]", "pIC50": 8.25}, {"smiles": "CC(C)(C)c1ccc(C(=O)Nc2cccc(-c3nc(N)nc(Nc4ccc(S(=O)(=O)N5CCOCC5)cc4)n3)c2CO)cc1", "note": "[Example 204, N-[3-(4-Amino-6-{[4-(morpholinosulfonyl)phe-nyl]amino}-1,3,5-tri-azin-2-yl)-2-(hydroxy-methyl)phenyl]-4-(tert-butyl)benzamide]", "pIC50": 8.89}, {"smiles": "Nc1nc(Nc2ccc(N3CCOCC3)nc2)nc(-c2cccc(N3CCc4cc(C5CC5)cc(F)c4C3=O)c2CO)n1", "note": "[Example 46, 2-(3-{4-Amino-6-[(6-morpho-linopyridin-3-yl)amino]-1,3,5-triazin-2-yl}-2-(hydroxymeth-yl)phenyl)-6-cyclopro-pyl-8-fluoro-3,4-dihy-droisoquinolin-1(2H)-one]", "pIC50": 8.28}]}]}
